Measured values taken from paper PMC9551036, “A selective and orally bioavailable VHL-recruiting PROTAC achieves SMARCA2 degradation in vivo” (Nature Communications, 2022).
Where “and” joins values, the source holds several entries; their conditions need not be identical. Identical values can stand only once. Like-named read-outs stand apart in the source and are kept apart here.

Assays:
[1] = biological target: T1, VCB: PROTAC: SMARCA2^BD ternary complex (Homo sapiens, UniProt P51531); assay: TR-FRET ternary complex affinity and cooperativity, SMARCA2; format: binding
T1 construct: P51531-2, residues 1373-1493 with additional N-terminal SM residues; GST (TEV site) (N); His6 (TEV site) (N, cleaved yes); made in house; host or cells: SMARCA2^BD: Escherichia coli BL21(DE3)
T1 sequence (P51531 with tags, fused parts or gaps isoform P51531-2): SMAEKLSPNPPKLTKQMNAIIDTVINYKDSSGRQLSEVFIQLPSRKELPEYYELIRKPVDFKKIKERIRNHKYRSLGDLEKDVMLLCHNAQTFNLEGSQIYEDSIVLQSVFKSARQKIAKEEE

[2] = biological target: T2, (Homo sapiens, UniProt P51532); assay: TR-FRET ternary complex affinity and cooperativity, SMARCA4; format: binding
T2 construct: P51532, residues 1448–1569 with additional N-terminal SM residues; GST (TEV site) (N); His6 (TEV site) (N, cleaved yes); made in house; host or cells: SMARCA4^BD: Escherichia coli BL21(DE3)
T2 sequence (P51532 1448-1569): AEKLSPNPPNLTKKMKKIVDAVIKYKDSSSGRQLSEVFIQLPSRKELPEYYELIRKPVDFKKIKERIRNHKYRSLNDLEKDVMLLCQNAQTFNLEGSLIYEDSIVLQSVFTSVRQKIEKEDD

NCI-H1568 cells = assay: Cell viability assay (CellTiter Glo) in NCI-H1568; format: cell-based, human; details: for EC50: read-out: EC50 cell proliferation (CellTiter Glo); for IC50: NCI-H1568, (18h), CellTiter Glo, individual replicates, read-out: NCI-H1568 (18h) CTG
How it was run: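 This proliferation assay used human NCI-H1568 cells seeded at 500–2000 cells per well into 96-well white, clear-bottom plates containing 180–200 µl medium. Compounds were dispensed digitally the following day alongside a T0 reference measurement. Cells and CellTiter Glo reagent were brought to room temperature, incubated 10–20 min with shaking, and luminescence was read.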

PBRM1 BD = biological target: T3, PBRM1 BD (Homo sapiens, UniProt Q86U86); assay: TR-FRET binary and ternary (PROTAC + VCB) affinity, PBRM1 bromodomain; format: binding; details: individual replicates
T3 construct: GST (TEV site) (N); made in house; host or cells: Escherichia coli BL21(DE3)

PBRM1BD5 = biological target: T4, PBRM1BD5 (Homo sapiens, UniProt Q86U86); assay: TR-FRET ternary complex affinity and cooperativity, PBRM1; format: binding; details: TR-FRET competition for PBRM1BD5, without VCB; mean ± SD; read-out: TR-FRET PBRM1BD EC50
T4 construct: GST (TEV site) (N); His6 (TEV site) (N, cleaved yes); made in house; host or cells: PBRM1^BD5: Escherichia coli BL21(DE3)
T4 sequence (Q86U86 645-766): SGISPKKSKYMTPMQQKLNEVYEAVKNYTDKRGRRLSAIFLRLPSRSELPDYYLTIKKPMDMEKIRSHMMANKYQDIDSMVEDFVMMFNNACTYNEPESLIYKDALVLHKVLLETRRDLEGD

SMARCA2 = SMARCA2 (Homo sapiens, UniProt P51531); assay: Imaging-based SMARCA2 protein assay in RKO cells; format: cell-based; design: endogenous in cells; host or cells: RKO, NCI-H1568, A549, HCT116, LU99, HCC-364, HCT-15, HCC4006, SK-N-AS; details: individual replicates
Chain of SMARCA2 (P51531 whole entry): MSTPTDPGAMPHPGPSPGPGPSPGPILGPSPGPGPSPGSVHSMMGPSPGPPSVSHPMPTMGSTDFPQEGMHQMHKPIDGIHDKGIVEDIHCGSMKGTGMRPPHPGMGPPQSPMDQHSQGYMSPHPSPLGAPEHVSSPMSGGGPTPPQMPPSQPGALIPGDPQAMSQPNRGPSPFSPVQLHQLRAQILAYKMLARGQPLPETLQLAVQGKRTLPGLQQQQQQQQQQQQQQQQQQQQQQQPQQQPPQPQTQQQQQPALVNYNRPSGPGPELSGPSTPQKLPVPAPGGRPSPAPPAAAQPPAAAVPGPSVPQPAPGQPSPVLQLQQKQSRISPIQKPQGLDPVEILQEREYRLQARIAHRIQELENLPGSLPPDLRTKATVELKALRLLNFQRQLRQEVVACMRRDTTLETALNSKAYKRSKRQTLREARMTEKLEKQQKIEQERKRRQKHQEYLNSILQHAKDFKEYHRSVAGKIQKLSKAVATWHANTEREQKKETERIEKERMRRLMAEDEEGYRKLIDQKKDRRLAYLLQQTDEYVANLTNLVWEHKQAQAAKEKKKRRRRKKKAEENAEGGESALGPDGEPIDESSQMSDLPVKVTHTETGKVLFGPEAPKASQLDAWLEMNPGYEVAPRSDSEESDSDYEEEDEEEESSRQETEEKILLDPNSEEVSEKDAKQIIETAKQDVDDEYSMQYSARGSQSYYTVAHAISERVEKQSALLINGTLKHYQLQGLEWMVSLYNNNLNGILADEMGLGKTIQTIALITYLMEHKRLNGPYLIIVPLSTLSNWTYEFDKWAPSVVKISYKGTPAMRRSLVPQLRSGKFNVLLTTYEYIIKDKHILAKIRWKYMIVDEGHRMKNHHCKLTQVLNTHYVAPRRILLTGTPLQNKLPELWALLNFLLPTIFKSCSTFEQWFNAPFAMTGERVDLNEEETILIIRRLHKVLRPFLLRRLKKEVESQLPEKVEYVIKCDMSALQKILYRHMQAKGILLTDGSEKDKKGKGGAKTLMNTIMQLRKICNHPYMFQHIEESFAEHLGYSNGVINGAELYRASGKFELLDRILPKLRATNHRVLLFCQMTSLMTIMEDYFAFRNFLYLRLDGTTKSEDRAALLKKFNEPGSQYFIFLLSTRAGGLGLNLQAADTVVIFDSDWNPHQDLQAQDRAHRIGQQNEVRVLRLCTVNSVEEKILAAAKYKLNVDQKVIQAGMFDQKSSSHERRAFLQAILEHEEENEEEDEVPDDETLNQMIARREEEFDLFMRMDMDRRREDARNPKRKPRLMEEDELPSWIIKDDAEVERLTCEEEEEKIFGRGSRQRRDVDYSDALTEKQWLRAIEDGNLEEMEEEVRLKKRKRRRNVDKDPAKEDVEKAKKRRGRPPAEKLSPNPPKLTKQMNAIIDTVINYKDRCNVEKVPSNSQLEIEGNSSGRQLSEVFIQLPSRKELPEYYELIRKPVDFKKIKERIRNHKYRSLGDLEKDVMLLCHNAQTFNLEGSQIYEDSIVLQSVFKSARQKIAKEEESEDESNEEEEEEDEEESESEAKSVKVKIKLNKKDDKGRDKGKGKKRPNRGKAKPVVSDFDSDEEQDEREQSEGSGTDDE
How it was run: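 Mean nuclear SMARCA2 signal, imaged on an Opera Phoenix after fixing, blocking with 10% goat serum and staining, was the read-out. A 4-parametric logistic fit gave EC50.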

[3] = biological target: VCB: PROTAC: SMARCA4^BD ternary complex (Homo sapiens, UniProt P40337+P51532); assay: TR-FRET ternary complex affinity and cooperativity, SMARCA4; format: binding; design: P51532, residues 1448–1569 with additional N-terminal SM residues; GST (TEV site) (N); His6 (TEV site) (N, cleaved yes); made in house; host or cells: SMARCA4^BD: Escherichia coli BL21(DE3)
Chain of VCB: PROTAC: SMARCA4^BD ternary complex (P51532 1448-1569): as the sequence (P51532 1448-1569) above
Chain of VCB: PROTAC: SMARCA4^BD ternary complex (P40337 54-213): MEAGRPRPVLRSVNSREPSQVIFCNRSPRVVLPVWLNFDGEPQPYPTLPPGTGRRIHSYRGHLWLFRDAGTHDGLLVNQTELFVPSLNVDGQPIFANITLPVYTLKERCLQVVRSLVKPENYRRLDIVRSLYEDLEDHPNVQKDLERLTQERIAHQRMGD
Chain of VCB: PROTAC: SMARCA4^BD ternary complex (Q15369 17-112 partner): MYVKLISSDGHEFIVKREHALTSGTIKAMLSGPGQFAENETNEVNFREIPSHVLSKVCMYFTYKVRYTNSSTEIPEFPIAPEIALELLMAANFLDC
Chain of VCB: PROTAC: SMARCA4^BD ternary complex (Q15370 1-104 partner): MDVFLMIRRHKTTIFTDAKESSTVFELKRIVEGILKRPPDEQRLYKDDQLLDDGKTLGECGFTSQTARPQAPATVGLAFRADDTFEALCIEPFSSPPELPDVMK

[4] = biological target: VCB: PROTAC: SMARCA2^BD ternary complex (Homo sapiens, UniProt P40337+P51531); assay: TR-FRET ternary complex affinity and cooperativity, SMARCA2; format: binding; design: P51531-2, residues 1373-1493 with additional N-terminal SM residues; GST (TEV site) (N); His6 (TEV site) (N, cleaved yes); made in house; host or cells: SMARCA2^BD: Escherichia coli BL21(DE3)
Chain of VCB: PROTAC: SMARCA2^BD ternary complex (Homo sapiens, UniProt P40337+P51531) (P51531 with tags, fused parts or gaps isoform P51531-2): as the sequence (P51531 with tags, fused parts or gaps isoform P51531-2) above
Chain of VCB: PROTAC: SMARCA2^BD ternary complex (Homo sapiens, UniProt P40337+P51531) (P40337 54-213): as the sequence (P40337 54-213) above
Chain of VCB: PROTAC: SMARCA2^BD ternary complex (Homo sapiens, UniProt P40337+P51531) (Q15369 17-112 partner): as the sequence (Q15369 17-112 partner) above
Chain of VCB: PROTAC: SMARCA2^BD ternary complex (Homo sapiens, UniProt P40337+P51531) (Q15370 1-104 partner): as the sequence (Q15370 1-104 partner) above

[5] = TR-FRET competition for SMARCA2BD, without VCB, mean ± SD, read-out: TR-FRET SMARCA2BD EC50
[6] = binary, PROTAC alone, individual replicates, read-out: SMARCA2 BD EC50
[7] = TR-FRET competition for SMARCA4BD, without VCB, mean ± SD, read-out: TR-FRET SMARCA4BD EC50
[8] = binary, PROTAC alone, individual replicates, read-out: SMARCA4 BD EC50
[9] = PROTAC + VCB, read-out: Ternary PBRM1 BD EC50 (PROTAC + VCB)
[10] = binary, PROTAC alone, read-out: PBRM1 EC50
[11] = 18h, read-out: RKO (18h) SMARCA2 DC50
[12] = PROTAC + VCB, individual replicates, read-out: Ternary SMARCA4 BD EC50 (PROTAC + VCB)
[13] = TR-FRET competition for SMARCA4BD, + VCB, mean ± SD, read-out: TR-FRET Ternary SMARCA4BD EC50 (PROTAC + VCB)
[14] = PROTAC + VCB, individual replicates, read-out: Ternary SMARCA2 BD EC50 (PROTAC + VCB)
[15] = TR-FRET competition for SMARCA2BD, + VCB, mean ± SD, read-out: TR-FRET Ternary SMARCA2BD EC50 (PROTAC + VCB)
[16] = 4h, read-out: RKO (4h) SMARCA2 DC50

Compound	EC50 [1, 5] [nM]	EC50 [1, 6]	EC50 [2, 7] [nM]	EC50 [2, 8]	EC50 (NCI-H1568 cells; NCI-H1568 ([…]), mean ± SD) [nM]	IC50 (NCI-H1568 cells)	EC50 (PBRM1 BD; [9])	EC50 (PBRM1 BD; [10])	EC50 (PBRM1BD5) [nM]	DC50 (SMARCA2; [11])	EC50 [3, 12]	EC50 [3, 13] [nM]	EC50 [4, 14]	EC50 [4, 15] [nM]	DC50 (SMARCA2; [16])	EC50 (NCI-H1568 cells; Homo sapiens, NCI-H1568, […]) [nM]
Cc1ncsc1-c1ccc(CNC(=O)[C@@H]2C[C@@H](O)CN2C(=O)[C@@H](NC(=O)C2(F)CC2)C(C)(C)C)c(OCCCCN2CCC(c3ccc4c(c3)n(C3CCCC3)c3nc(=O)c5c(Br)cccc5n43)CC2)c1 [compound 23]	98 ± 12	88.5 nM and 111 nM and 107 nM and 87.4 nM	174 ± 21	148 nM and 197 nM and 173 nM and 183 nM	104 ± 27	133 nM and 78.5 nM and 108 nM	18.3 nM and 22.9 nM and 22.1 nM	46.2 nM and 37.9 nM and 38.2 nM and 36.1 nM	39 ± 5	30 nM and 50 nM and 40 nM	165 nM and 215 nM and 180 nM and 280 nM	206 ± 51	115 nM and 127 nM and 132 nM and 372 nM	164 ± 124		
Cc1ncsc1-c1ccc([C@H](CCCCN2CCC(c3ccc4c(c3)n(C3CCCC3)c3nc(=O)c5c(Br)cccc5n43)CC2)NC(=O)[C@@H]2C[C@@H](O)CN2C(=O)[C@@H](NC(=O)C2(F)CC2)C(C)(C)C)cc1 [compound 25]	87 ± 35	179 nM and 54.5 nM and 63.5 nM and 111 nM and 66.9 nM and 57.7 nM and 73.7 nM and 97.8 nM and 88.9 nM and 103 nM and 118 nM and 101 nM and 123 nM and 55.7 nM	182 ± 57	134 nM and 202 nM and 155 nM and 262 nM	7 ± 4	11.9 nM and 5.25 nM and 6.51 nM	2.29 nM and 2.88 nM and 3.31 nM and 5.31 nM and 3.22 nM	33 nM and 36.4 nM and 33.2 nM and 57.3 nM and 26.6 nM	36 ± 12	2 nM and 2.63 nM and 3.33 nM	69.7 nM and 82.3 nM and 75.3 nM and 90.7 nM	79 ± 9	208 nM and 27.9 nM and 62.3 nM and 29 nM and 29.1 nM and 33.2 nM and 38.8 nM and 39.9 nM and 50.6 nM and 51.7 nM and 46 nM and 34.5 nM and 27.1 nM	43 ± 48	4.26 nM and 1.82 nM and 3.89 nM and 3.46 nM	
Cc1ncsc1-c1ccc([C@H](COCCN2CCC(c3ccc4c(c3)n(C3CCCC3)c3nc(=O)c5c(Br)cccc5n43)CC2)NC(=O)[C@@H]2C[C@@H](O)CN2C(=O)[C@@H](NC(=O)C2(N(C)C)CC2)C(C)(C)C)cc1 [compound 26]	71 ± 15	87 nM and 79.2 nM and 87.9 nM and 88.7 nM and 86.5 nM and 48.4 nM and 75.1 nM and 59.9 nM and 56.1 nM (2×) and 67.5 nM	149 ± 41	136 nM and 180 nM and 162 nM and 117 nM and 111 nM and 126 nM and 154 nM and 147 nM and 247 nM		52.4 nM and 57.1 nM and 12.2 nM	4.07 nM and 5.33 nM and 4.96 nM and 5.58 nM and 10.7 nM and 6.01 nM and 6.73 nM and 6.09 nM	22.2 nM and 18.2 nM and 23.4 nM and 24.5 nM and 15.7 nM and 23.5 nM and 21.5 nM and 14.9 nM and 30.3 nM and 26.7 nM	22 ± 5	3.5 nM and 6.73 nM and 7.09 nM		56 ± 23	13.6 nM and 14.3 nM and 15.5 nM and 15.9 nM and 16.4 nM and 11.2 nM and 10.2 nM and 21.5 nM and 22 nM and 6 nM and 9.26 nM	13 ± 5	13.4 nM and 7.13 nM and 22 nM and 9.24 nM	33 ± 25
Cc1ncsc1-c1ccc([C@H](COCCCN2CCC(c3ccc4c(c3)n(C3CCCC3)c3nc(=O)c5c(Br)cccc5n43)CC2)NC(=O)[C@@H]2C[C@@H](O)CN2C(=O)[C@@H](NC(=O)C2(F)CC2)C(C)(C)C)cc1 [compound 27]	91 ± 11	98.5 nM and 107 nM and 101 nM (2×) and 91.6 nM and 79.8 nM and 86.9 nM and 77.2 nM and 83.6 nM	193 ± 15	183 nM and 211 nM and 185 nM and 209 nM and 173 nM and 200 nM	13 ± 1	14.2 nM and 12 nM and 13.3 nM	2.18 nM and 2.66 nM and 2.87 nM and 2.65 nM and 2.69 nM and 3.64 nM and 3.28 nM	32.7 nM and 35.1 nM and 34.6 nM and 30.3 nM and 34.2 nM and 22.8 nM and 45.7 nM	33 ± 7	1.7 nM and 2.99 nM and 2.34 nM	63.8 nM and 63.4 nM and 53.1 nM and 76.7 nM and 81.7 nM and 82 nM	69 ± 12	29.5 nM and 30.9 nM and 30.6 nM and 24.4 nM and 46.9 nM and 21.2 nM and 34.9 nM and 23.9 nM	29 ± 8	5.2 nM and 2.76 nM and 5.65 nM and 7.65 nM	
Cc1ncsc1-c1ccc([C@H](COC(C)(C)CN2CCC(c3ccc4c(c3)n(C3CCCC3)c3nc(=O)c5c(Br)cccc5n43)CC2)NC(=O)[C@@H]2C[C@@H](O)CN2C(=O)[C@@H](NC(=O)C2(F)CC2)C(C)(C)C)cc1 [compound 28]	130 ± 18	132 nM and 140 nM and 145 nM and 139 nM and 134 nM and 133 nM and 154 nM and 106 nM and 96.3 nM and 137 nM	240 ± 55	300 nM and 283 nM and 195 nM and 201 nM	16 ± 5	16.7 nM and 21.6 nM and 18.3 nM and 17.1 nM and 20.5 nM and 6.45 nM	5.74 nM and 5.13 nM and 5.34 nM and 1.07 nM	37.2 nM and 28.8 nM and 29.6 nM and 10.8 nM	24 ± 11	3.23 nM and 5.17 nM and 7.73 nM and 5.43 nM	99.7 nM and 76.7 nM and 88 nM and 49.7 nM	76 ± 21	34 nM and 37.9 nM and 38.6 nM and 39.5 nM and 28.8 nM and 36.1 nM and 40.6 nM and 27.9 nM and 35.6 nM and 32 nM	35 ± 4	14.7 nM and 15 nM and 30.1 nM and 11.8 nM	
Cc1ncsc1-c1ccc([C@H](CC[C@@H](C)CCN2CCC(c3ccc4c(c3)n(C3CCCC3)c3nc(=O)c5c(Br)cccc5n43)CC2)NC(=O)[C@@H]2C[C@@H](O)CN2C(=O)[C@@H](NC(=O)C2(F)CC2)C(C)(C)C)cc1 [compound 29]	201 ± 45	166 nM and 269 nM and 192 nM and 189 nM	416 ± 177	272 nM and 625 nM and 423 nM	5 ± 2	4.01 nM and 5.99 nM and 2.49 nM and 8.59 nM and 7.01 nM	2.66 nM and 3.59 nM and 4.13 nM	66.7 nM and 78.8 nM and 115 nM	85 ± 25	0.877 nM and 0.998 nM and 0.942 nM and 0.753 nM	49.3 nM and 72.5 nM and 61.2 nM	60 ± 12	29.4 nM and 32.4 nM and 32.3 nM and 32.6 nM	32 ± 2	1.56 nM and 2.15 nM and 1.32 nM and 3.46 nM	
Cc1ncsc1-c1ccc([C@H](CCC(C)(C)CCN2CCC(c3ccc4c(c3)n(C3CCCC3)c3nc(=O)c5c(Br)cccc5n43)CC2)NC(=O)[C@@H]2C[C@@H](O)CN2C(=O)[C@@H](NC(=O)C2(F)CC2)C(C)(C)C)cc1 [compound 30]	260 ± 100	213 nM and 176 nM and > 400 nM and 400 nM and 304 nM		> 2000 nM and 564 nM and > 400 nM	12 ± 6	19.7 nM and 17.5 nM and 8.43 nM and 7.53 nM	4.23 nM and 6.19 nM and 8.06 nM	111 nM and 105 nM and 192 nM	131 ± 49	2.02 nM and 3.96 nM and 3.27 nM and 3.57 nM	88.3 nM and 118 nM and 113 nM	106 ± 16	45.6 nM and 53.2 nM and 68.1 nM and 44.6 nM and 46.9 nM	51 ± 10	6.74 nM and 9.27 nM	
